Usually IC50 stands for the concentration needed to halve the response being measured.

This experiment relates to Wolbachia pipientis (wAlbB) in C6/36 (wAlbB) cells. In words: acumen high-throughput anti-Wolbachia assay. Type of experiment: cell-based. Conditions: C6/36, 168 h, read-out: anti-Wolbachia IC50 in the acumen assay.

As to `C[C@H]1c2cccc(O)c2C(=O)C2=C(O)[C@]3(O)C(=O)C(C(N)=O)=C(O)[C@@H](N(C)C)[C@@H]3[C@@H](O)[C@@H]21` [Doxycycline, doxycycline], the IC50 amounted to 17.8 nM.
